# Values of other authors as cited in patent US8349353B2, “Controlled release cytotoxic agent compositions and methods for the treatment of otic disorders” (Otonomy, Inc., priority 2008, dated 2013).
# Test system: V2-R
# Details: infusion into the scala tympani
smiles,measurement,value
Cc1ccccc1C(=O)Nc1ccc(C(=O)N2CCCC(N(C)C)c3ccccc32)cc1 (stereo not shown) [OPC-31260],Meniere's disease symptoms,marked reduction of Meniere's disease symptoms
